For orientation: IC50 means the midpoint of a concentration-inhibition curve.

Experimental findings from ChEMBL document CHEMBL5728730, “Tri-substituted imidazoles for the inhibition of TGF beta and methods of treatment” (2021) are described below.

This assay deals with T1, TGF-beta receptor type-1 (Homo sapiens, UniProt P36897).
T1 sequence (P36897 whole entry): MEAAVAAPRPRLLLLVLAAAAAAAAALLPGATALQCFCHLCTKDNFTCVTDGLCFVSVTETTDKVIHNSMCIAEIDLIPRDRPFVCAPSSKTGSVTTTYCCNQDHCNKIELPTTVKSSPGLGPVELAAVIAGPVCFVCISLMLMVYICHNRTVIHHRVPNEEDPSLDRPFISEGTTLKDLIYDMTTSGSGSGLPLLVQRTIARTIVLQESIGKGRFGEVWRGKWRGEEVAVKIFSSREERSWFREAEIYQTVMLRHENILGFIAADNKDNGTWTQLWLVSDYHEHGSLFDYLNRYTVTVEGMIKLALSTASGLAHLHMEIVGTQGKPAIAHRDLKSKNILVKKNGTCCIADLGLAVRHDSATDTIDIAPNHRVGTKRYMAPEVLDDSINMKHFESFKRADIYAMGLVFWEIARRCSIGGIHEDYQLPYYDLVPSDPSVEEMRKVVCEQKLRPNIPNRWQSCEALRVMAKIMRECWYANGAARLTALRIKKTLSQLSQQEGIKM
Nature of the assay: LanthaScreen™Eu Kinase Binding Assay TGFBR1 (ALK5): Exemplified compounds were screened in 1% DMSO (final concentration) by 3-fold serial dilutions from 10,000 nM to 0.316 nM to produce an IC50 or at single concentrations of 10,000, 1000 and 100 nM according to the following protocol. To low volume, white 384-well plates (Greiner Cat #784207) add 160 nL 100× compound in 100% DMSO, 3.84 uL kinase buffer (50 mM HEPES, pH 7.5, 0.01% BRIJ-35, 10 mM MgCl2, 1 mM EGTA), 8 uL 2× kinase/antibody mixture in kinase buffer (final ALK5 concentration of 5 nM; final Eu-anti-GST antibody concentration of 2 nM), 4 uL 4× Tracer #178 in kinase buffer (final concentration of 5 nM). Gently shake the plates for 30 seconds and incubate at room temperature for 1 hour before reading fluorescence on a plate reader. Percent inhibition was determined compared to DMSO only control (maximal ALK5 tracer binding) and sigmoidal dose response curve fit yielded IC50 values as indicated in Table 2.

On to `CC(C)n1ccc(-c2nc(CNc3cc(F)cc(F)c3)[nH]c2-c2ccc3nccnc3c2)n1`, for which the IC50 came out at 46.4 nM.
In the case of `CC(C)n1ccc(-c2nc(CNc3cc(F)cc(C#N)c3)[nH]c2-c2ccc3nccnc3c2)n1` it was 138 nM; in that of `CC(C)n1ccc(-c2nc(-c3ccc(C(N)=O)cc3)[nH]c2-c2ccc3ncnn3c2)n1`, less than 1000 nM.
